Literature values as cited in US5183802A, “Pharmaceutical compositions for intranasal administration of calcitonin” (ISF Societa per Azioni, priority 1987, dated 1993).

Settings: nasal absorption of insulin; compared with sodium caprate

## CC1(C)[C@@H](O)CC[C@]2(C)[C@H]3C(=O)C=C4[C@@H]5C[C@@](C)(C(=O)[O-])CC[C@]5(C)CC[C@@]4(C)[C@]3(C)CC[C@@H]12.[Na+] [sodium glycyrrhetinate]
  strength as absorption-enhancing agent for insulin: weaker than sodium caprate
